How the values were obtained:
[1] = test system: MM.1R-LR; test: Tumor cell viability, CCK-8 assay, MM.1R-LR; format: cell-based; conditions: MM.1R-LR (drug-resistant human multiple myeloma); compound treatment 1uM; 5 days
Protocol: (§1) To examine whether the compounds having CRBN-binding activity according to the present invention exert tumor cell apoptosis effects, the assay was conducted using various human cancer cell lines, including human multiple myeloma cell lines (MM.1S and MM.1R-LR), a human breast cancer cell line (MDA-MB-231), a human lung cancer cell line (A549), a human rhabdomyosarcoma cell line (RD), and a human lymphoma cell line (Jeko-1).
(§2) The MM.1S, MM.1R-LR, MDA-MB-231, A549, RD, and Jeko-1 cell lines were obtained from the American Type Culture Collection (ATCC, Manassas, VA, USA) and cultured in RPMI 1640 medium (Corning, MD, USA) or DMEM (Corning, MD, USA) supplemented with 10% fetal bovine serum (FBS) (Corning, MD, USA), 100 U/mL penicillin (Corning, MD, USA), and 100 µg/mL streptomycin (Corning, MD, USA) at 37°C in a 5% CO2 incubator for 24 hours. The cells were seeded at a density of 1 × 10^4 cells/well in 96-well plates and incubated for 24 hours. After incubation, the test compounds dissolved in dimethyl sulfoxide (DMSO, CAS No.: 67-68-5) were serially diluted to a final concentration of 10 µM and applied to the cells. Following an additional incubation for 2 to 5 days, the analysis was performed using a CCK-8 assay kit (Dojindo, Japan) according to the manufacturer's instructions.

[2] = test system: RD; test: Tumor cell viability, CCK-8 assay, RD; format: cell-based; conditions: RD (human rhabdomyosarcoma); compound treatment 1uM; 3 days
Protocol: as §1, §2

[3] = test system: A549; test: Tumor cell viability, CCK-8 assay, A549; format: cell-based; conditions: A549 (human lung cancer); compound treatment 1uM; 2 days
Protocol: as §1, §2

[4] = test system: MM.1S; test: Tumor cell viability, CCK-8 assay, MM.1S; format: cell-based; conditions: MM.1S (human multiple myeloma); compound treatment 1uM; 5 days
Protocol: as §1, §2

[5] = test system: MDA-MB-231; test: Tumor cell viability, CCK-8 assay, MDA-MB-231; format: cell-based; conditions: MDA-MB-231 (human breast cancer); compound treatment 1uM; 2 days
Protocol: as §1, §2

[6] = molecular target: cereblon (CRBN) (Homo sapiens, UniProt Q96SW2); test: In vitro CRBN binding assay (AlphaScreen, competitive inhibition of the PROTAC assay); conditions: Table 1; AlphaScreen, PROTAC Optimization Kit for BET Bromodomain-Cereblon Binding; read-out: Alpha IC50
[7] = test system: Jeko-1; test: Tumor cell viability, CCK-8 assay, Jeko-1; format: cell-based; conditions: Jeko-1 (human lymphoma); compound treatment 1uM; 3 days
Protocol: as §1, §2

Compound | Cell viability (% of control) [1] | Cell viability (% of control) [2] | Cell viability (% of control) [3] | Cell viability (% of control) [4] | Cell viability (% of control) [5] | IC50 [6] [nM] | Cell viability (% of control) [7]
CCCCc1ccc(C(=O)Nc2cccc(S(=O)(=O)Nc3cccc(C4CCC(=O)NC4=O)c3)c2)cc1 (centres unmarked) [AEV41012, 4-butyl-N-(3-(N-(3-(2,6-dioxopiperidin-3-yl)phenyl)sulfamoyl)phenyl)benzamide] | 56.7 % of control | 79.7 % of control | 94.0 % of control | 7.4 % of control | 78.7 % of control | 940 | 37.7 % of control
CCCCCc1ccc(C(=O)Nc2cccc(S(=O)(=O)Nc3cccc(C4CCC(=O)NC4=O)c3)c2)cc1 (centres unmarked) [AEV41013, N-(3-(N-(3-(2,6-dioxopiperidin-3-yl)phenyl)sulfamoyl)phenyl)-4-pentylbenzamide] | 55.2 % of control | 30.0 % of control | 25.8 % of control | 15.3 % of control | 38.5 % of control | 360 | 11.8 % of control
O=C1CCC(c2cccc(NS(=O)(=O)c3cccc(NC(=O)c4ccc(CCCl)cc4)c3)c2)C(=O)N1 (centres unmarked) [AEV41003, 4-(2-chloroethyl)-N-(3-(N-(3-(2,6-dioxopiperidin-3-yl)phenyl)sulfamoyl)phenyl)benzamide] | 79.9 % of control | – | 104.0 % of control | 92.1 % of control | 97.0 % of control | 770 | –
CCc1ccc(C(=O)Nc2cccc(S(=O)(=O)Nc3cccc(C4CCC(=O)NC4=O)c3)c2)cc1 (centres unmarked) [AEV41010, N-(3-(N-(3-(2,6-dioxopiperidin-3-yl)phenyl)sulfamoyl)phenyl)-4-ethylbenzamide] | 66.1 % of control | – | 96.7 % of control | 88.4 % of control | 95.7 % of control | 420 | –
O=C1CCC(c2cccc(NS(=O)(=O)c3cccc(NC(=O)c4ccc(CCl)cc4)c3)c2)C(=O)N1 (centres unmarked) [AEV41002, 4-(chloromethyl)-N-(3-(N-(3-(2,6-dioxopiperidin-3-yl)phenyl)sulfamoyl)phenyl)benzamide] | 90.2 % of control | – | – | 97.8 % of control | – | 170 | –
CCCc1ccc(C(=O)Nc2cccc(S(=O)(=O)Nc3cccc(C4CCC(=O)NC4=O)c3)c2)cc1 (centres unmarked) [AEV41011, N-(3-(N-(3-(2,6-dioxopiperidin-3-yl)phenyl)sulfamoyl)phenyl)-4-propylbenzamide] | 66.1 % of control | – | 98.9 % of control | 56.9 % of control | 96.7 % of control | 700 | –
O=C1CCC(c2cccc(NS(=O)(=O)c3cccc(NC(=O)c4ccc(Cl)cc4)c3)c2)C(=O)N1 (centres unmarked) [AEV41 001, 4-chloro-N-(3-(N-(3-(2,6-dioxopiperidin-3-yl)phenyl)sulfamoyl)phenyl)benzamide] | 78.4 % of control | – | – | 88.3 % of control | – | 1230 | –
O=C1CCC(c2cccc(NS(=O)(=O)c3cccc(NC(=O)c4ccc(CCCCl)cc4)c3)c2)C(=O)N1 (centres unmarked) [AEV41004, 4-(3-chloropropyl)-N-(3-(N-(3-(2,6-dioxopiperidin-3-yl)phenyl)sulfamoyl)phenyl)benzamide] | 63.8 % of control | 78.6 % of control | 101.9 % of control | 10.5 % of control | 83.5 % of control | 1570 | –

— EP4692061A1, “LOW-MOLECULAR-WEIGHT COMPOUND HAVING CEREBLON-BINDING ACTIVITY, AND USE THEREOF” (Aevis Bio, Inc., priority 2023, dated 2024)
